Assay results: patent US6352976B1, “Selective inhibitors of MMP-12” (Aventis Pharmaceuticals Inc., priority 1998, dated 2002)
Where a name gives a salt, the structure may show the parent alone.

Experiments:
[1] = target: T1, MMP-1 (interstitial collagenase) (Homo sapiens, UniProt P03956); experiment: Determination of inhibition constant (Ki) for MMP-1, fluorogenic substrate; assay type: biochemical; details: pH 7.6
T1 construct: The active MMP-1 was obtained by treatment of proMMP-1 with trypsin; endogenous in cells; host or cells: human rheumatoid synovial fibroblasts stimulated with macrophage-conditioned medium; secreted proenzyme purified from culture medium
T1 sequence (P03956 100-469): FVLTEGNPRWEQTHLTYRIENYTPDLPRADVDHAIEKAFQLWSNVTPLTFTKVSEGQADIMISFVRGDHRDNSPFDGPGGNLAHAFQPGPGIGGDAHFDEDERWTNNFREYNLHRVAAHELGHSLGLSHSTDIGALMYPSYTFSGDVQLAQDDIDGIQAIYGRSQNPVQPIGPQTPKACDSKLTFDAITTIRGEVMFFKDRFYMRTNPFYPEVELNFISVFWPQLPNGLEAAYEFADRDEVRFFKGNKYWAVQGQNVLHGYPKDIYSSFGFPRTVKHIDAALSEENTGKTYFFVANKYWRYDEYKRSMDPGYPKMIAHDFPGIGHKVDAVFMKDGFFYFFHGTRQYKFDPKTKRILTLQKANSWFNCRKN
Method: (§1) ProMMP-1 (EC3.4.24.7; interstitial collagenase) was purified from culture medium of human rheumatoid synovial fibroblasts stimulated with macrophage-conditioned medium according to Okada, Y. et al., J. Biol. Chem. 261, 14245-14255 (1986). The active MMP-1 was obtained by treatment of proMMP-1 with trypsin (5 μg/mL) at 37° C. for 30 minutes, followed by addition of soybean trypsin inhibitor (50 μg/mL).
(§2) The activated MMP-1 is assayed using a fluorogenic substrate, Mca-Pro-Leu-Gly-Leu-Dpa-Ala-Arg-NH2, Knight, C. G. et al., FEBS Lett. 296, 263-266 (1992), at 37° C. in 2.0 mL of assay buffer containing 50 mM Tris, pH 7.6, 0.2 M sodium chloride, 50 mM calcium chloride, and 0.02% Brij-35. The increase in fluorescence due to cleavage of Gly-Leu peptide bond by MMP-3 was monitored with Perkin-Elmer LS50B Fluorimeter (λex 328 nm, λem 393 nm, excitation slit 2.5, emission slit 10). Substrate and inhibitor stock solutions were made in DMF. For determination of Ki values for MMP-1 inhibitors, a series of intermediate inhibitor solutions were prepared in DMF and 1 or 2 μL of the diluted inhibitor solution was mixed with 1 μL of 2 mM substrate solution in DMF in a quartz cuvette containing 2 mL of assay buffer. The enzyme (10 μL of 0.2 μM […] dilution in assay buffer) was added at the last to start the reaction. For routine measurement of a Ki value for a reversible, competitive inhibitor, the initial rates in the presence of at least four inhibitor concentrations (two concentrations above Ki and two concentrations below Ki) were measured using [S]=1 μM (<<Km) and [MMP-1]=0.8 nM. Under these conditions, the measured Ki, app is close to true Ki.
(§3) The Ki for a competitive inhibitor is calculated using: v0/vi=(1+[I]/Ki, app) and Ki=Ki, app/(1+[S]/Km), where v0 is the initial rate in the absence of inhibitor, vi is the initial rate in the presence of inhibitor at the concentration of [I], [S] is the substrate concentration, and Km is the Michaelis constant. If slow binding is observed (i.e. if the approach to the binding equilibrium is slow), the final steady-state rate rather than the initial rate is taken as vi.

[2] = target: T2, MMP-3 (Stromelysin-1) (Homo sapiens, UniProt P08254); experiment: Determination of inhibition constant (Ki) for MMP-3, fluorogenic substrate; assay type: biochemical; details: pH 7.6
T2 construct: The active MMP-3 was obtained by treatment of proMMP-3 with trypsin; endogenous in cells; host or cells: human rheumatoid synovial fibroblasts stimulated with macrophage-conditioned medium; secreted proenzyme purified from culture medium
T2 sequence (P08254 100-477): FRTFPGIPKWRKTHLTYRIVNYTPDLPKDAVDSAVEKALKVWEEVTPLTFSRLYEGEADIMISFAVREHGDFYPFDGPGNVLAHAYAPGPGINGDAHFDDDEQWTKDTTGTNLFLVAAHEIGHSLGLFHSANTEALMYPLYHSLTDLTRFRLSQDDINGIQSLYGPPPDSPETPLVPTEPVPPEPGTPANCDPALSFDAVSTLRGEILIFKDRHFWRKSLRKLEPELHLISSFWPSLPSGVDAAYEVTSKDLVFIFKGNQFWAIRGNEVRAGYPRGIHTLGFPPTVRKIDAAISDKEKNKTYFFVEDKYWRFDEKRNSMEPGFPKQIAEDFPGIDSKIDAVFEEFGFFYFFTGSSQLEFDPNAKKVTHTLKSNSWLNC
Method: as §1, with “ProMMP-3 (EC3.4.24.17; Stromelysin-1)” for “ProMMP-1 (EC3.4.24.7; interstitial collagenase)”, “MMP-3” for “MMP-1”, “proMMP-3” for “proMMP-1”, “μg/mL). Aliquots of the activated MMP-3 were stored at −20° C.” for “μg/mL).”
as §2, with “The activated MMP-3 is assayed” for “The activated MMP-1 is assayed”, “C. in an assay buffer” for “C. in 2.0 mL of assay buffer”, “made in DMF and 0.1% HCl-DMF, respectively. For determination” for “made in DMF. For determination”, “values for MMP-3 inhibitors, a” for “values for MMP-1 inhibitors, a”, “prepared in 0.1% HCl-DMF and 1” for “prepared in DMF and 1”, “(<<Km) and [MMP-3]=1 nM. Under” for “(<<Km) and [MMP-1]=0.8 nM. Under”
as §3

[3] = Table 1, Mca-Pro-Leu-Gly-Leu-Dpa-Ala-Arg-NH2, 37° C.

Row | Ki ([1]; Table 2 (comparative), method of Example A, 37° C.) | Ki ([2]; Table 2 (comparative), method of Example C, 37° C.) | Ki [1, 3] | Ki [2, 3] | SMILES
1 | 465 nM | 10 nM |  |  | CNC(=O)[C@H](Cc1ccccc1)NC(=O)[C@H](CCc1ccccc1)NC(=O)C(S)C(C)C (stereo partly drawn) [Example 7, (S)-2-Mercapto-3-methylbutyroyl-(L)-homo-phenylalanyl-(L)-phenylalanine N-methyl amide, reference compound]
2 |  |  | 3910 nM | 1550 nM | CC(C)[C@H](S)C(=O)N[C@@H](CCCCN)C(=O)N[C@@H](Cc1ccccc1)C(=O)O [Example 5, (S)-2-Mercapto-3-methylbutyroyl-(L)-lysyl-(L)-phenylalanine trifluoroacetic acid salt]
3 |  |  | 153 nM | 449 nM | CSCC[C@H](NC(=O)[C@@H](S)C(C)C)C(=O)N[C@@H](Cc1ccccc1)C(=O)O [Example 4, (S)-2-Mercapto-3-methylbutyroyl-(L)-methionyl-(L)-phenylalanine]
4 |  |  | 518 nM | 1410 nM | CC(C)C[C@H](NC(=O)[C@@H](S)C(C)C)C(=O)N[C@@H](Cc1ccccc1)C(=O)O [Example 3, (S)-2-Mercapto-3-methylbutyroyl-(L)-leucyl-(L)-phenylalanine]
